Results from patent publication US6028110A, “Succinyl hydroxamic acid, N-formyl-N-hydroxy amino carboxylic acid and succinic acid amide derivatives as metalloprotease inhibitors” (British Biotech Pharmaceuticals Ltd., priority 1994, dated 2000).
Structures can show the parent of a compound that is named as a salt.

What was measured:
[1] = test system: human PUMP-1 (matrilysin); test: Inhibition of human PUMP-1 (matrilysin) ([14C]-casein degradation assay); type: biochemical; settings: 16 hours at 37° C, recombinant human PUMP-1 expressed in CHO cells
Procedure: Recombinant human PUMP-1 was expressed in CHO cells and purified by heparin-agarose and Procion Red chromatography. A [^14 C]-casein degradation assay was used to measure PUMP-1 activity. […] The incubation was terminated by addition of trichloroacetic acid (final concentration 10%) and the substrate was separated from the TCA-soluble degradation products by centrifugation at 10,000 g for 15 minutes. […] The inhibitors were dissolved and diluted in DMSO. […] For weak inhibitors, the percentage inhibition (% I) at a concentration of 100 μM is given.

collagenase = test: Inhibition of collagenase (acetylated 14C collagen, Cawston and Barrett); type: biochemical; settings: 37°, 16 hours, pH 7.5
Procedure: The collagen was acetylated ^14 C collagen prepared by the method of Cawston and Murphy, (Methods in Enzymology, 80, 711, 1981), hereby incorporated by reference. The samples were centrifuged to sediment undigested collagen, and an aliquot of the radioactive supernatant removed for assay on a scintillation counter as a measure of hydrolysis. […] For weak inhibitors, the percentage inhibition (% I) at a concentration of 100 μM is given.

CCCCCCCCCCCC[C@H](CC(=O)O)C(=O)N[C@@H](Cc1ccccc1)C(=O)NC [Comparator Example A, 3R-(1S-Methylcarbamoyl-2-phenyl-ethylcarbamoyl)-pentadecanoic acid]
PUMP % Inhibition @ 100 μM [1]: 10 % I | Collagenase % Inhibition @ 100 μM (collagenase): 30 % I

CCCCCCCCCCCCCCCC[C@H](CC(=O)O)C(=O)N[C@@H](Cc1ccccc1)C(=O)NC [Example 1, 3R-(1S-Methylcarbamoyl-2-phenyl-ethylcarbamoyl)nonadecanoic acid (dicyclohexylamine salt)]
PUMP % Inhibition @ 100 μM [1]: 20 % I | Collagenase % Inhibition @ 100 μM (collagenase): 0 % I
